“And” between values parts separate entries of the source, which are not always exact repeats. Equal values may be shown once.
What was measured:
[1] = target: T1, Gonadotropin-releasing hormone receptor (Rattus norvegicus, UniProt P30969); assay: Binding affinity to Gonadotropin-releasing hormone receptor (GnRHr) in rat pituitary cells
T1 sequence (P30969 whole entry): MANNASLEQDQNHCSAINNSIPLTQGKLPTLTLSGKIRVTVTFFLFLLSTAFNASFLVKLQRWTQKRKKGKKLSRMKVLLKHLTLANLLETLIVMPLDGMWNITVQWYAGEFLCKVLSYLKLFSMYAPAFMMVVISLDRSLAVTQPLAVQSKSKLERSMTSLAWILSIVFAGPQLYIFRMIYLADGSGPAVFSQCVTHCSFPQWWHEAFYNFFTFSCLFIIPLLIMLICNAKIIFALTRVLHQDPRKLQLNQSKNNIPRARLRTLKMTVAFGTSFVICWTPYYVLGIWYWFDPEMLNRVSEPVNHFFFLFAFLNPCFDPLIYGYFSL

[2] = target: T1, Gonadotropin-releasing hormone receptor; assay: Compound was evaluated for its antagonism in rat primary pituitary cell assay (rLH); assay type: functional, cell-based, Pituitary gland cell
[3] = target: T2, Gonadotropin-releasing hormone receptor (Homo sapiens, UniProt P30968); assay: Inhibition of recombinant human Gonadotropin-releasing hormone receptor
T2 sequence (P30968 whole entry): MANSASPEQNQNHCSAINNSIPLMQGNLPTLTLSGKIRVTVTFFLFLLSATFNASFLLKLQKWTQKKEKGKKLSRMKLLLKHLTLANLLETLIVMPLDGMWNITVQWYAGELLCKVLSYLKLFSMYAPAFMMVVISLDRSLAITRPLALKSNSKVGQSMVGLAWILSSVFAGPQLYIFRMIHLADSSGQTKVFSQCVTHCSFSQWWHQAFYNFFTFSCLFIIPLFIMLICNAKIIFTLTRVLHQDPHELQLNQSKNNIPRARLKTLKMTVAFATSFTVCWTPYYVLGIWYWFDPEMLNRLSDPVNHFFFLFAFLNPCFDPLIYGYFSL

[4] = target: T1, Gonadotropin-releasing hormone receptor; assay: Compound was evaluated for its inhibitory activity against rat pituitary Gonadotropin-releasing hormone receptor
[5] = Compound was evaluated for its antagonism in CHO cells expressing the human receptor (hPI); assay type: functional, cell-based

Compound	IC50 [1] [µM]	also measured
O=c1[nH]c2cc(Cl)c([N+](=O)[O-])cc2c(OCCC2CCCCN2)c1-c1ccccc1Cl (stereo not drawn)	0.36	–
Cc1cc(CC(N)=O)cc(-c2c(O)nc3cc(Cl)c([N+](=O)[O-])cc3c2OCCC2CCCCN2)c1 (stereo not drawn)	0.071	–
Cc1cc(C)cc(-c2c(O)nc3cc(Cl)c(NC(=O)Nc4ccccn4)cc3c2OCCC2CCCCN2)c1 (stereo not drawn)	0.015	IC50 [2]: 0.463 µM
Cc1cc(C)cc(-c2c(O)nc3cc(Cl)c(NC(=O)Nc4ncccn4)cc3c2OCCC2CCCCN2)c1 (stereo not drawn)	0.006	–
Cc1cc(C)cc(-c2c(O)nc3cc(Cl)c(NC(=O)c4cnccn4)cc3c2OCCC2CCCCN2)c1 (stereo not drawn)	0.0018	IC50 [3]: 0.01 µM; IC50 [2]: 1.92 µM
O=[N+]([O-])c1cc2c(OCCC3CCCCN3)c(-c3ccc(Cl)c(Cl)c3)c(O)nc2cc1Cl (stereo not drawn)	0.029	–
COc1ccc(-c2c(O)nc3cc(Cl)c([N+](=O)[O-])cc3c2OCCC2CCCCN2)cc1OC (stereo not drawn)	0.6	–
O=c1[nH]c2cc(Cl)c([N+](=O)[O-])cc2c(OCCC2CCCCN2)c1-c1cc(C(F)(F)F)cc(C(F)(F)F)c1 (stereo not drawn)	0.071	–
Cc1cc(C)cc(-c2c(O)nc3cc(Cl)c(NC(=O)NC4CC4)cc3c2OCCC2CCCCN2)c1 (stereo not drawn)	0.0008	IC50 [4]: 0.0011 µM; IC50 [2]: 0.375 µM and 0.682 µM; IC50 [5]: 0.012 µM and 0.005 µM
Cc1ccc(-c2c(OCCC3CCCCN3)c3cc([N+](=O)[O-])c(Cl)cc3[nH]c2=O)cc1C (stereo not drawn)	0.018	–
Cc1cc(C)cc(-c2c(OCCC3CCCCN3)c3cc(NC(=O)Nc4ccccc4)c(Cl)cc3[nH]c2=O)c1 (stereo not drawn)	0.01	IC50 [2]: 3.3 µM
Cc1cc(C)cc(-c2c(OCC[C@@H]3CCCCN3)c3cc(NC(=O)NC4CC4)c(Cl)cc3[nH]c2=O)c1	–	IC50 [3]: 0.0023 µM
O=c1[nH]c2cc(Cl)c([N+](=O)[O-])cc2c(OCCC2CCCCN2)c1-c1ccsc1 (stereo not drawn)	0.9	–
Cc1cc(CC#N)cc(-c2c(O)nc3cc(Cl)c([N+](=O)[O-])cc3c2OCCC2CCCCN2)c1 (stereo not drawn)	0.018	–
O=[N+]([O-])c1cc2c(OCCC3CCCCN3)c(-c3cccc(F)c3)c(O)nc2cc1Cl (stereo not drawn)	0.053	–
O=c1[nH]c2cc(Cl)c([N+](=O)[O-])cc2c(OCCC2CCCCN2)c1-c1cc(Cl)cc(Cl)c1 (stereo not drawn)	0.024	–
CC(C)(C)c1ccc(-c2c(OCCC3CCCCN3)c3cc([N+](=O)[O-])c(Cl)cc3[nH]c2=O)cc1 (stereo not drawn)	0.2	–
O=c1[nH]c2cc(Cl)c([N+](=O)[O-])cc2c(OCCC2CCCCN2)c1-c1ccc(Cl)s1 (stereo not drawn)	0.023	–
Cc1cc(C)cc(-c2c(OCC[C@@H]3CCCCN3)c3cc(NC(=O)Nc4cnccn4)c(Cl)cc3[nH]c2=O)c1	–	IC50 [3]: 0.0011 µM
Cc1cc(C)cc(-c2c(O)nc3cc(Cl)c(NC(=O)Nc4cncnc4)cc3c2OCC[C@@H]2CCCCN2)c1	–	IC50 [3]: 0.057 µM; IC50 [5]: 0.897 µM
O=[N+]([O-])c1cccc(-c2c(O)nc3cc(Cl)c([N+](=O)[O-])cc3c2OCCC2CCCCN2)c1 (stereo not drawn)	0.1	–
Cc1cc(C)cc(-c2c(O)nc3cc(Cl)c(CC(=O)Nc4ccncn4)cc3c2OCCC2CCCCN2)c1 (stereo not drawn)	0.0079	IC50 [2]: 2.5 µM; IC50 [5]: 0.227 µM
Cc1cccc(-c2c(O)nc3cc(Cl)c([N+](=O)[O-])cc3c2OCCC2CCCCN2)c1 (stereo not drawn)	0.027	–
O=C(Nc1cc2c(OCCC3CCCCN3)c(-c3ccc4ccccc4c3)c(=O)[nH]c2cc1Cl)NC1CC1 (stereo not drawn)	0.068	–
O=C(Nc1ccncn1)c1cc2c(OCC[C@@H]3CCCCN3)c(-c3ccc(Cl)c(Cl)c3)c(O)nc2cc1Cl	–	IC50 [3]: 0.001 µM; IC50 [5]: 0.0077 µM
O=[N+]([O-])c1cc2c(OCCC3CCCCN3)c(-c3cccc(Br)c3)c(O)nc2cc1Cl (stereo not drawn)	0.04	–
O=C(Nc1cc2c(OCCC3CCCCN3)c(-c3ccc(Cl)c(Cl)c3)c(O)nc2cc1Cl)NC1CC1 (stereo not drawn)	0.018	–

Compound	IC50 [1] [µM]	also measured
COc1ccc(-c2c(OCCC3CCCCN3)c3cc([N+](=O)[O-])c(Cl)cc3[nH]c2=O)cc1C (stereo not drawn)	0.04	–
O=C(Nc1ccncn1)c1cc2c(OCC[C@@H]3CCCCN3)c(-c3cc(Cl)cc(Cl)c3)c(O)nc2cc1Cl	–	IC50 [3]: 0.0011 µM; IC50 [5]: 0.0085 µM
O=c1[nH]c2cc(Cl)c([N+](=O)[O-])cc2c(OCCC2CCCCN2)c1-c1cccc(Cl)c1 (stereo not drawn)	0.04	–
Cc1cc(C)cc(-c2c(O)nc3cc(Cl)c(NC(=O)c4cnccn4)cc3c2OCC[C@@H]2CCCCN2)c1	–	IC50 [3]: 0.002 µM; IC50 [5]: 0.023 µM
Cc1ccc(-c2c(O)nc3cc(Cl)c([N+](=O)[O-])cc3c2OCCC2CCCCN2)c(C)c1 (stereo not drawn)	0.4	–
O=c1[nH]c2cc(Cl)c([N+](=O)[O-])cc2c(OCCC2CCCCN2)c1-c1ccccc1 (stereo not drawn)	0.41	–
O=C(Nc1cc2c(OCCC3CCCCN3)c(-c3cccc(Br)c3)c(=O)[nH]c2cc1Cl)NC1CC1 (stereo not drawn)	0.006	–
CCN(CC)Cc1cc(C)cc(-c2c(OCCC3CCCCN3)c3cc([N+](=O)[O-])c(Cl)cc3[nH]c2=O)c1 (stereo not drawn)	0.27	–
O=c1[nH]c2cc(Cl)c([N+](=O)[O-])cc2c(OCCC2CCCCN2)c1-c1ccc2ccccc2c1 (stereo not drawn)	0.053	–
Cc1cc(C)cc(-c2c(OCC[C@@H]3CCCCN3)c3cc(NC(=O)Nc4ccncn4)c(Cl)cc3[nH]c2=O)c1	–	IC50 [3]: 0.0018 µM
Cc1cc(-c2c(O)nc3cc(Cl)c(C(=O)Nc4ccncn4)cc3c2OCC[C@@H]2CCCCN2)ccc1I	–	IC50 [3]: 0.0005 µM; IC50 [5]: 0.0071 µM
Cc1cc(-c2c(O)nc3cc(Cl)c(C(=O)Nc4ccncn4)cc3c2OCC[C@@H]2CCCCN2)cc(C)c1C	–	IC50 [3]: 0.0003 µM; IC50 [5]: 0.0022 µM
O=C(Nc1ccncn1)c1cc2c(OCC[C@@H]3CCCCN3)c(-c3ccc(Cl)s3)c(O)nc2cc1Cl	–	IC50 [3]: 0.0039 µM; IC50 [5]: 0.053 µM
Cc1cc(C)cc(-c2c(O)nc3cc(Cl)c(NC(=O)Nc4cccnc4)cc3c2OCCC2CCCCN2)c1 (stereo not drawn)	0.02	IC50 [2]: 1.3 µM
O=C(Nc1ccncn1)c1cc2c(OCC[C@@H]3CCCCN3)c(-c3ccc4c(c3)CCC4)c(O)nc2cc1Cl	–	IC50 [3]: 0.0007 µM; IC50 [5]: 0.016 µM
O=c1[nH]c2cc(Cl)c([N+](=O)[O-])cc2c(OCCC2CCCCN2)c1-c1ccc(Cl)cc1 (stereo not drawn)	0.16	–
O=c1[nH]c2cc(Cl)c([N+](=O)[O-])cc2c(OCCC2CCCCN2)c1-c1cccs1 (stereo not drawn)	0.22	–
O=[N+]([O-])c1cc2c(OCCC3CCCCN3)c(-c3ccc(-c4ccccc4)c(Cl)c3)c(O)nc2cc1Cl (stereo not drawn)	0.9	–
CC(=O)OCc1cc(C)cc(-c2c(O)nc3cc(Cl)c([N+](=O)[O-])cc3c2OCCC2CCCCN2)c1 (stereo not drawn)	0.045	–
Cc1ccc(-c2c(O)nc3cc(Cl)c(C(=O)Nc4ccncn4)cc3c2OCC[C@@H]2CCCCN2)cc1C	–	IC50 [3]: 0.0007 µM; IC50 [5]: 0.0065 µM
Cc1cc(-c2c(O)nc3cc(Cl)c([N+](=O)[O-])cc3c2OCCC2CCCCN2)cc(C(C)O)c1 (stereo not drawn)	0.063	–
Cc1cc(C)cc(-c2c(O)nc3cc(Cl)c(NC(=O)c4cncnc4)cc3c2OCC[C@@H]2CCCCN2)c1	0.025	IC50 [5]: 0.225 µM
Cc1ccc(-c2c(OCCC3CCCCN3)c3cc(NC(=O)NC4CC4)c(Cl)cc3[nH]c2=O)cc1C (stereo not drawn)	0.006	–
Cc1cccc(-c2c(OCCC3CCCCN3)c3cc(NC(=O)NC4CC4)c(Cl)cc3[nH]c2=O)c1 (stereo not drawn)	0.023	–
Cc1cc(C)cc(-c2c(O)nc3cc(Cl)c(NC(=O)Nc4ccncc4)cc3c2OCCC2CCCCN2)c1 (stereo not drawn)	0.04	–
Cc1cc(C)cc(-c2c(O)nc3cc(Cl)c(NC(=O)Nc4cnccn4)cc3c2OCCC2CCCCN2)c1 (stereo not drawn)	0.0003	IC50 [2]: 0.056 µM; IC50 [5]: 0.009 µM
Cc1cc(C)cc(-c2c(OCCC3CCCCN3)c3cc(NC(=O)Nc4ccncn4)c(Cl)cc3[nH]c2=O)c1 (stereo not drawn)	0.0006	IC50 [4]: 0.0004 µM; IC50 [2]: 0.235 µM and 0.052 µM
